Assay results reported in patent US20100093817A1, “Compounds” (BIAL - PORTELA & CA S.A., priority 2007, published 2010).
Where a name gives a salt, the structure may show the parent alone.

Key:
[1] = target: T1, human dopamine-β-hydroxylase (Homo sapiens, UniProt P09172); experiment: Human DβH in vitro assay: β-hydroxylation of dopamine to noradrenaline, SK-N-SH cells as enzyme source; assay type: biochemical; set-up: key to In vitro DβH inhibition: + = inhibitory activity; conditions: for In vitro DβH inhibition / IC50: SK-N-SH cells as source of human DβH, 50 mM dopamine, test compounds 0.3 to 10,000 nM; for IC50: read-out: In vitro DβH inhibition (IC50 μM); for % control Mean ± SEM: human DβH in vitro assay
T1 construct: SK-N-SH cells (ATCC HTB-11), a human neuroblastoma derived cell line, were used as a source of human dopamine-β-hydroxylase; host or cells: SK-N-SH human neuroblastoma cells
T1 sequence (P09172 1-617): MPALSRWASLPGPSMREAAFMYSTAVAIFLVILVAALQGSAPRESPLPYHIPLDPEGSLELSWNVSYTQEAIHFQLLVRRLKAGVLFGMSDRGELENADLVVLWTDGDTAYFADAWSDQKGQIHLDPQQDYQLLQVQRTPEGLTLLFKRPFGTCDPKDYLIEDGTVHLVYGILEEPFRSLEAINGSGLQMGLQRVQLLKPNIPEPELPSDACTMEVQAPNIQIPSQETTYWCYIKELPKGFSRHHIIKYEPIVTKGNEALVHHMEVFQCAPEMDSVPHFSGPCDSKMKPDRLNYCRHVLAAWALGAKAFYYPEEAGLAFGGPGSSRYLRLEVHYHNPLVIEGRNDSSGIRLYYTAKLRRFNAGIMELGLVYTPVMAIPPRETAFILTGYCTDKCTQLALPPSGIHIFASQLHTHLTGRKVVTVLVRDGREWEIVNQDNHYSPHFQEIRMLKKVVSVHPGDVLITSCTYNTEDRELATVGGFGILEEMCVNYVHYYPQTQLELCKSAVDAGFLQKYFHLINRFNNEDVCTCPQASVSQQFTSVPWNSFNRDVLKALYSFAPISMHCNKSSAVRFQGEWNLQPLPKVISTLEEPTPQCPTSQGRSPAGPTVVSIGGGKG
Method: Dopamine-β-hydroxylase activity was evaluated by the ability to β-hydroxylate dopamine to noradrenaline as previously described (Kojima, K., Parvez, S. and Nagatsu T. 1993. Analysis of enzymes in catecholamine biosynthesis. In Methods in Neurotransmitter and Neuropeptide Research, pp. 349-380: Elsevier Science Publishers). SK-N-SH cells (ATCC HTB-11), a human neuroblastoma derived cell line, were used as a source of human dopamine-β-hydroxylase. SK-N-SH cells cultured in 24 well plates were preincubated for 20 min in a reaction medium containing 200 mM sodium acetate, 30 mM N-ethylmaleimide, 5 μM copper sulphate, 0.5 mg/ml catalase aqueous solution, 1 mM pargyline, 10 mM sodium fumarate and 20 mM ascorbic acid. Thereafter, cells were incubated for further 45 min in the reaction medium with added increasing concentrations of dopamine (0.5 to 100 mM). During preincubation and incubation, the cells were continuously shaken and maintained at 37° C. The reaction was terminated by the addition of 0.2 M perchloric acid. The acidified samples were stored at 4° C. before injection into the high pressure liquid chromatograph for the assay of noradrenaline. In experiments conducted with the aim of studying the effects of new dopamine-β-hydroxylase inhibitors on enzyme activity, test compounds (0.3 to 10,000 nM) of interest were added to the preincubation and incubation solutions; the incubation was performed in the presence of a concentration (50 mM) of dopamine 2.5 times the corresponding Km value as determined in saturation experiments.

[2] = literature finding; central as well as peripheral effects; cited from earlier work

Row | In vitro DβH inhibition [1] | IC50 [1] | Structure (SMILES) | % control Mean ± SEM ([1]; compound at 5 μM) | crossing of the blood brain barrier (BBB) [2] | % control Mean ± SEM ([1]; compound at 0.5 μM) | % control Mean ± SEM ([1]; compound at 1 μM)
1 | + | 0.2 µM | NCCc1c[nH]c(=S)n1[C@H]1COc2c(F)cc(F)cc2C1 [Compound I, (R)-5-(2-aminoethyl)-1-(6,8-difluorochroman-3-yl)-1,3-dihydroimidazole-2-thione, reference compound] | – | – | – | –
2 | – | – | NCc1c[nH]c(=S)n1[C@H]1CCc2c(F)cc(F)cc2C1 [Nepicastat, reference compound] | 0.4 ± 0.2 % control | cross the blood brain barrier | – | –
3 | + | 0.5 µM | CC(=O)NCCc1c[nH]c(=S)n1[C@H]1COc2c(F)cc(F)cc2C1 [compound II, (R)-N-(2-(3-(6,8-difluorochroman-3-yl)-2-thioxo-2,3-dihydro-1H-imidazol-4-yl)ethyl)acetamide] | – | – | – | –
4 | + | 0.6 µM | O=C(O)Cc1c[nH]c(=S)n1[C@H]1COc2c(F)cc(F)cc2C1 [compound III, (R)-2-(3-(6,8-difluorochroman-3-yl)-2-thioxo-2,3-dihydro-1H-imidazol-4-yl)acetic acid] | – | – | – | –
5 | + | 1.8 µM | NC(=O)Cc1c[nH]c(=S)n1[C@H]1COc2c(F)cc(F)cc2C1 [compound IV, (R)-2-(3-(6,8-difluorochroman-3-yl)-2-thioxo-2,3-dihydro-1H-imidazol-4-yl)acetamide] | – | – | – | –
6 | + | 0.5 µM | ONCCc1c[nH]c(=S)n1[C@H]1COc2c(F)cc(F)cc2C1 [compound V, (R)-1-(6,8-difluorochroman-3-yl)-5-(2-(hydroxyamino)ethyl)-1H-imidazole-2(3H)-thione hydrochloride] | – | – | – | –
7 | + | – | NCCc1c[nH]c(=S)n1[C@H]1COc2c(F)cc(F)cc2[C@@H]1O [compound VI, 5-(2-Aminoethyl)-1-((3S ,4S)-6,8-difluoro-4-hydroxychroman-3-yl)-1H-imidazole-2(3H)-thione hydrochloride] | – | – | – | –

Row | Structure (SMILES) | In vitro DβH inhibition [1] | IC50 [1] | % control Mean ± SEM ([1]; compound at 5 μM) | crossing of the blood brain barrier (BBB) [2] | % control Mean ± SEM ([1]; compound at 0.5 μM) | % control Mean ± SEM ([1]; compound at 1 μM)
8 | O=S(=O)([O-])NCCc1c[nH]c(=S)n1[C@H]1COc2c(F)cc(F)cc2C1.[Na+] [compound VIII, Sodium (R)-2-(3-(6,8-difluorochroman-3-yl)-2-thioxo-2,3-dihydro-1H-imidazol-4-yl)ethylsulfamate] | + | – | 3.5 ± 1.1 % control | – | 32.1 ± 1.1 % control | 20.3 ± 0.7 % control
